These results are taken from ChEMBL document CHEMBL4422633, “Antioxidant-Inspired Drug Discovery: Antitumor Metabolite Is Formed in Situ from a Hydroxycinnamic Acid Derivative upon Free-Radical Scavenging” (J Med Chem, 2019).

Calls of active or inactive are those of the source. No cut-off for these calls is given here.

Data set [1] relates to NCI-H661. In words: Induction of apoptosis in human NCI-H661 cells assessed as late apoptotic cells at 10 uM after 24 hrs by Annexin V/propidium iodide-staining based flow cytometry (reference value: 0.95 +/- 0.03%). Type of data set: functional.
The test system of data set [2] is NCI-H661. In words: Induction of ROS generation in human NCI-H661 cells assessed as increase DHE positive cells at 10 uM after 24 hrs by DHE-staining based flow cytometry. It counts as functional, cell-based.
Data set [3] can be described thus: Cytotoxicity against mouse L5178 cells assessed as reduction in cell viability after 72 hrs by MTT assay. It counts as functional, cell-based. To be noted: L5178, 72 h. For orientation: Formazan colour is commonly taken as a measure of viable cells.
Data set [4] concerns NCI-H460. In words: Induction of DNA damage response in human NCI-H460 cells assessed as increase in H2AX expression at 10 uM after 24 hrs by alexa fluor 488-staining based flow cytometry. Type of data set: functional, cell-based. (In general: In flow cytometry, cells or beads pass a laser one at a time.)
The test system of the next data set is MCF7. In words: Cytotoxicity against human MCF7 cells assessed as reduction in cell viability after 72 hrs by MTT assay. The following applies: MCF7, 72 h. Type of data set: functional, cell-based.
The subject of data set [5] is HaCaT. As to the kind of experiment: Induction of apoptosis in human HaCaT cells assessed as necrotic cells at 10 uM after 24 hrs by Annexin V/propidium iodide-staining based flow cytometry (reference value: 1.88 +/- 0.02%). It counts as cell-based.
For data set [6], the system named is HaCaT. As to the kind of experiment: Induction of DNA damage response in human HaCaT cells assessed as increase in H2AX expression at 10 uM after 24 hrs by alexa fluor 488-staining based flow cytometry. Type of data set: cell-based.
Data set [7] deals with NCI-H661. As to the kind of experiment: Cytotoxicity against human NCI-H661 cells assessed as reduction in cell viability after 72 hrs by MTT assay. To be noted: NCI-H661, 72 h. It counts as functional, cell-based.
Data set [8] is described as follows: Cytotoxicity against mouse L5178B1 cells transfected with pHa MDR1/A retrovirus assessed as reduction in cell viability after 72 hrs by MTT assay. Type of data set: functional, cell-based. The following applies: MDR1, 72 h.
The target of data set [9] is T1, Serine/threonine-protein kinase Chk1 (Homo sapiens) (UniProt O14757).
T1 sequence (whole entry): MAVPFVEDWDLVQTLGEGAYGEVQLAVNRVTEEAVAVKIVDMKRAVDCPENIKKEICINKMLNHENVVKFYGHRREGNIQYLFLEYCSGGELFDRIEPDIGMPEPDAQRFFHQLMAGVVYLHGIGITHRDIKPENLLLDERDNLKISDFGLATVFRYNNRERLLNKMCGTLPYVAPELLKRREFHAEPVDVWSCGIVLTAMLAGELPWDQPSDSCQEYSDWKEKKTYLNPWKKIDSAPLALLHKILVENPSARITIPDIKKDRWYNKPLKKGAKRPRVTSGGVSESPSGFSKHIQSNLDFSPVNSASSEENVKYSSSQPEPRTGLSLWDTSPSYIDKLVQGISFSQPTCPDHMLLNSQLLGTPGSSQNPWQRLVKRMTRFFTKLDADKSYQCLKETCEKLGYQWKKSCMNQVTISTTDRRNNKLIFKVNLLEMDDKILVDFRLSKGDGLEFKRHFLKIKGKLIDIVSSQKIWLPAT
As to the kind of experiment: Inhibition of CHK1 phosphorylation at S345 in human MCF7 cells at 10 uM pretreated for 30 mins followed by 10 J/m'2 irradiation and measured after 1 hr by Western blot analysis. Type of data set: cell-based. (In general: A western blot detects proteins with antibodies after separation by electrophoresis.)

The subject of data set [10] is NCI-H460. In words: Induction of ROS generation in human NCI-H460 cells assessed as increase DHE positive cells at 10 uM after 24 hrs by DHE-staining based flow cytometry. Type of data set: functional, cell-based.
In data set [11] the test system is NCI-H460. In words: Induction of apoptosis in human NCI-H460 cells assessed as viable cells at 10 uM after 24 hrs by Annexin V/propidium iodide-staining based flow cytometry (reference value: 96.49 +/- 0.96%). It counts as functional. To be noted: NCI-H460, 24 h, read-out: Activity.
The subject of data set [12] is NCI-H460. As to the kind of experiment: Induction of apoptosis in human NCI-H460 cells assessed as necrotic cells at 10 uM after 24 hrs by Annexin V/propidium iodide-staining based flow cytometry (reference value: 2.13 +/- 0.02%). Type of data set: functional.
Another data set relates to HeLa. As to the kind of experiment: Cytotoxicity against human HeLa cells assessed as reduction in cell viability after 72 hrs by MTT assay. Type of data set: functional, cell-based.
The subject of data set [13] is HaCaT. As to the kind of experiment: Cytotoxicity against human HaCaT cells assessed as reduction in cell viability after 72 hrs by MTT assay. It counts as cell-based.
Data set [14] can be described thus: Drug level using p-coumaric acid methyl ester assessed as compound formation by reverse phase-HPLC and HPLC-MS analysis based Fenton reaction assay. It counts as physicochemical.
Data set [15] relates to NCI-H460. As to the kind of experiment: Induction of DNA damage response in human NCI-H460 cells transfected with MDR assessed as increase in H2AX expression at 10 uM after 24 hrs by alexa fluor 488-staining based flow cytometry. It counts as functional, cell-based.

As usually defined, the IC50 is the concentration needed to halve the response being measured.

In the case of `COC(=O)/C=C/C1(O)C=CC(=O)C=C1`, the Activity with NCI-H661 [1] was 9.57%; with HaCaT [5], 5.21%; in the data set with HaCaT [6], “Non-Toxic”; with NCI-H460 [12], 7.31%. In addition, the result in the data set on NCI-H661 [2], in the data set with NCI-H460 [4], in the data set on NCI-H460 [10] and in the data set on NCI-H460 [15] was Active. The IC50 was 460 nM in data set [3]; 6220 nM in the data set with MCF7; 1440 nM in the data set with NCI-H661 [7]; 620 nM in data set [8]; 9850 nM with HeLa; 4050 nM with HaCaT [13]. Further, the inhibition entry in data set [9] was “Active”. For the same compound, the viability at 10 µM with NCI-H460 [11] came to 89.1%. Besides, the Drug uptake result in [14] is “Active”.
